Laboratory results taken from ChEMBL document CHEMBL5465560, “Selectivity Literature for EUbOPEN Chemogenomic Library” (2024).

Key:
[1] = biological target: Mitogen-activated protein kinase 8 (Homo sapiens, UniProt P45983); assay: Selectivity interaction (KinomeScan (DiscoverX)) EUB0000666a MAPK8; settings: at 10 µM
[2] = biological target: Receptor tyrosine-protein kinase erbB-4 (Homo sapiens, UniProt Q15303); assay: Selectivity interaction (Kinase panel (literature)) EUB0001199aCl ERBB4; settings: at 1 µM
Sequence of Receptor tyrosine-protein kinase erbB-4 (Q15303 whole entry): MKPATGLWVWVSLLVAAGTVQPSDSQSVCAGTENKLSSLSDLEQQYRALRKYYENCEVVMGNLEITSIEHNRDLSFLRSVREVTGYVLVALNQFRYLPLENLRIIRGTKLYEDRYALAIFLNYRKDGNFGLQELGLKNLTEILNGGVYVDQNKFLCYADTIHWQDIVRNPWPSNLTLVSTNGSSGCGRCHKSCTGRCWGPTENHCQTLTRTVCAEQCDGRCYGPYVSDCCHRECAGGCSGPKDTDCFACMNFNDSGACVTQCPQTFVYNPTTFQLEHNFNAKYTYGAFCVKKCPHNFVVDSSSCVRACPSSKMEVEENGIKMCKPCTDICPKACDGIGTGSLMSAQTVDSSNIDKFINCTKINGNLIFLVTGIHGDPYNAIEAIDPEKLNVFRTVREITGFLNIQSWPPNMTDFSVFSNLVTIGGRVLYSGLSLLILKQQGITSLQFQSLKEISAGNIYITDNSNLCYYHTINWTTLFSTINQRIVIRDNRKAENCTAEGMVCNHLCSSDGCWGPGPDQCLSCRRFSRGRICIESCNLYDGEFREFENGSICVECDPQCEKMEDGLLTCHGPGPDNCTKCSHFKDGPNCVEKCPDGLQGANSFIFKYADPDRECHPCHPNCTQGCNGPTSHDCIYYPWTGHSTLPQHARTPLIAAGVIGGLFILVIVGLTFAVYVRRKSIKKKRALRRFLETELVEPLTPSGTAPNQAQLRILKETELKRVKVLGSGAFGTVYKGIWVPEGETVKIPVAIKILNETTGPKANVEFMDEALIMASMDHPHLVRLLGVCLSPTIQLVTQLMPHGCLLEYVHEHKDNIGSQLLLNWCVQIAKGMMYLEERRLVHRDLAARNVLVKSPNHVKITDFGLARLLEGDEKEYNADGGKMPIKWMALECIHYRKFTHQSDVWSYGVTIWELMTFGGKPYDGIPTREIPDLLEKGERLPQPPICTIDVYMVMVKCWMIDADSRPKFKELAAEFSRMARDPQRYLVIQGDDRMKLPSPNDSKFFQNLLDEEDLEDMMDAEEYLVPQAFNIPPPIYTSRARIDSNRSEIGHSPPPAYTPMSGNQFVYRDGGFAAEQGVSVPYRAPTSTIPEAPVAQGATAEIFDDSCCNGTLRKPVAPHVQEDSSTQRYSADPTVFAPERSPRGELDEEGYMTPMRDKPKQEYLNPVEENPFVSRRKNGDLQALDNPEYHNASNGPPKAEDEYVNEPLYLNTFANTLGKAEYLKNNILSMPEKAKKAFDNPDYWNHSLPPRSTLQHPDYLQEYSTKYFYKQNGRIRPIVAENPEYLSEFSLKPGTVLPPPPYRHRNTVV

[3] = biological target: High affinity nerve growth factor receptor (Homo sapiens, UniProt P04629); assay: Selectivity interaction (Upstate Kinase Profiler service (Millipore)) EUB0000056c NTRK1; settings: at 1 µM
Sequence of High affinity nerve growth factor receptor (P04629 33-796 limits assumed): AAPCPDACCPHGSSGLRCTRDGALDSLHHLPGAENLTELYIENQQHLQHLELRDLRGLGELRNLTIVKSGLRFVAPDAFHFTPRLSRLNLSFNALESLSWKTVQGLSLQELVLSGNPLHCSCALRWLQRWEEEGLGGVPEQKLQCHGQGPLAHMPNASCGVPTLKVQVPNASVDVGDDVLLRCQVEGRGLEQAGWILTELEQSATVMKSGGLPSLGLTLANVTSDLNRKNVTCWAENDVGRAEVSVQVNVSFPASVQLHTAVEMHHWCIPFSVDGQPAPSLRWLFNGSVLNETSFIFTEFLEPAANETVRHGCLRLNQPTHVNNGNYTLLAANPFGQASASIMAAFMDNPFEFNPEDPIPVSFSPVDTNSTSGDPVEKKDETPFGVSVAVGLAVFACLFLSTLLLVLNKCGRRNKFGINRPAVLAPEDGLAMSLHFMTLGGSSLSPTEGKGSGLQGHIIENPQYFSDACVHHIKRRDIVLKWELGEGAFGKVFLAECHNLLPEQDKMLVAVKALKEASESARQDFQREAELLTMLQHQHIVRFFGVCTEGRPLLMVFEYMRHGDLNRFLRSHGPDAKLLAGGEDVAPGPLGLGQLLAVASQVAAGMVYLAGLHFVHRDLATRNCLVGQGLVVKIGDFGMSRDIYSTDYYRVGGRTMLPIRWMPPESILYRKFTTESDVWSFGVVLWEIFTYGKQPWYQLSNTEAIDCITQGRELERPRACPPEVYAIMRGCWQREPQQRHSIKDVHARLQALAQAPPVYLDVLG

[4] = biological target: Dual specificity protein kinase CLK3 (Homo sapiens, UniProt P49761); assay: Selectivity interaction (Kinase panel (Invitrogen)) EUB0000639a CLK3; settings: at 200 nM
Sequence of Dual specificity protein kinase CLK3 (P49761 whole entry, looked up): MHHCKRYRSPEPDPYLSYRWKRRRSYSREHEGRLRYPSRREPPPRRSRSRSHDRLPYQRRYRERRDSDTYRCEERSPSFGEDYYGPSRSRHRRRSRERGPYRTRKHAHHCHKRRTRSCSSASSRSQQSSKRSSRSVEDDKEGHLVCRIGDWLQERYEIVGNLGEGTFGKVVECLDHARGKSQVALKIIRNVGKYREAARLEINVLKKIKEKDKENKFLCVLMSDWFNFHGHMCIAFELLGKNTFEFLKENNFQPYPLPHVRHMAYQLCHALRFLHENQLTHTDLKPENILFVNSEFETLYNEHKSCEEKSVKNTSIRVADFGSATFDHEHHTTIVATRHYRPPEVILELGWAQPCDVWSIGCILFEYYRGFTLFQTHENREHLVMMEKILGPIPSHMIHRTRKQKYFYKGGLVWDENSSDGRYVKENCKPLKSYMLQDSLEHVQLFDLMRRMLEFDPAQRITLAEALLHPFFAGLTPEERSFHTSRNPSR

[5] = biological target: Fibroblast growth factor receptor 2 (Homo sapiens) (UniProt P21802); assay: Selectivity interaction (Kinase panel (Invitrogen)) EUB0000639a FGFR2; settings: at 200 nM
Sequence of Fibroblast growth factor receptor 2 (Homo sapiens) (P21802 22-821 limits assumed): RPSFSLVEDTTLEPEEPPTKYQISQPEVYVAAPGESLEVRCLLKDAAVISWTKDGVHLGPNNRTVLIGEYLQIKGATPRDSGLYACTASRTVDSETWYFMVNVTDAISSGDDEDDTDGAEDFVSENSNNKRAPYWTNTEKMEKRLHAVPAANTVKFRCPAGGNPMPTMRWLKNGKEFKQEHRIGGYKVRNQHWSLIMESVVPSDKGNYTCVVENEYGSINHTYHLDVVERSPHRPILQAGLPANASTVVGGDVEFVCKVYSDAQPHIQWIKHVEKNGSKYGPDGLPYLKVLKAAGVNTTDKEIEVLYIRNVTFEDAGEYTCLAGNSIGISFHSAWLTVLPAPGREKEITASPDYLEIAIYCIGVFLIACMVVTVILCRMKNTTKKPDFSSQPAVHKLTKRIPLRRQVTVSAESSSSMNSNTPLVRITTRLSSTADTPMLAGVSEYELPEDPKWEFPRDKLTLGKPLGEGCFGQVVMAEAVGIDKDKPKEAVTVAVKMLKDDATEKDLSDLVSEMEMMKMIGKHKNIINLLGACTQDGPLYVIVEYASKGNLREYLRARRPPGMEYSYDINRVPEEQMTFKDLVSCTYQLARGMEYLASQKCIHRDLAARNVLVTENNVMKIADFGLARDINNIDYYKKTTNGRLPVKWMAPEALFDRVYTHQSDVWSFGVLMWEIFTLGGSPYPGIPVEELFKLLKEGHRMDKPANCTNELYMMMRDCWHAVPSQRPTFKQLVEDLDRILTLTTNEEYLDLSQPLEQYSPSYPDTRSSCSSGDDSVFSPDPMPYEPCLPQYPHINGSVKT

[6] = Selectivity interaction (KinomeScan (DiscoverX)) EUB0000695a CDPK1; settings: at 100 nM
[7] = biological target: Death-associated protein kinase 3 (Homo sapiens) (UniProt O43293); assay: Selectivity interaction (Ambit KINOMEscan and KiNATiv profiling in Jurkat cells) EUB0000090b DAPK3; assay type: cell-based; settings: at 1 µM
Sequence of Death-associated protein kinase 3 (Homo sapiens) (O43293 whole entry, looked up): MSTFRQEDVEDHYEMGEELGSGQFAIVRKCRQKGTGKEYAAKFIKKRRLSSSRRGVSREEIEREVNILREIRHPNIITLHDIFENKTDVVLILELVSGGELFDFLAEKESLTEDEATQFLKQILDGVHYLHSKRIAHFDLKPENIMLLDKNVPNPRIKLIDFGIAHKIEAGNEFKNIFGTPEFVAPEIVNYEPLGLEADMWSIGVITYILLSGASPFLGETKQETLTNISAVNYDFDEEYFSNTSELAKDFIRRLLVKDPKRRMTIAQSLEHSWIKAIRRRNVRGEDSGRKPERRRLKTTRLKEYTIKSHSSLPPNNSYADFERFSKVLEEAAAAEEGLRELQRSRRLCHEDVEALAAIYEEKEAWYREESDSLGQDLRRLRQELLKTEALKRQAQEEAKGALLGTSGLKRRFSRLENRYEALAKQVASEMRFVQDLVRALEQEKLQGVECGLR

[8] = biological target: Tyrosine-protein kinase SYK (Homo sapiens, UniProt P43405); assay: Selectivity interaction (Ambit KINOMEscan and KiNATiv profiling in Jurkat cells) EUB0000090b SYK; assay type: cell-based; settings: at 1 µM
[9] = biological target: Mitogen-activated protein kinase 10 (Homo sapiens, UniProt P53779); assay: Selectivity interaction (Ambit KINOMEscan and KiNATiv profiling in Jurkat cells) EUB0000090b MAPK10; assay type: cell-based; settings: at 1 µM
Sequence of Mitogen-activated protein kinase 10 (P53779 whole entry): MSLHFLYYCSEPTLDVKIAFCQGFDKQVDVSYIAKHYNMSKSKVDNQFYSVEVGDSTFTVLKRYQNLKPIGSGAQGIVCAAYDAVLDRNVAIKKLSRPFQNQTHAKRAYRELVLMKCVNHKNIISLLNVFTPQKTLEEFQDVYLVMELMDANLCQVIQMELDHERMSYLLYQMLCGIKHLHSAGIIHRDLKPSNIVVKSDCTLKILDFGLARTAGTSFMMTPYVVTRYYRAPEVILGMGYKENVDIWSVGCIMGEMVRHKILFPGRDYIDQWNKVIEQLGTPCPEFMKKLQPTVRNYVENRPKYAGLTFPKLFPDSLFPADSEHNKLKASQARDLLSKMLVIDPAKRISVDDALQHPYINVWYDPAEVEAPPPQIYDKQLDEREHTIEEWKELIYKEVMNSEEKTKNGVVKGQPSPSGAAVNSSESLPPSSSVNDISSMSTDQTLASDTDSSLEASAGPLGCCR

[10] = biological target: T1, Serine/threonine-protein kinase DCLK2 (Homo sapiens) (UniProt Q8N568); assay: Selectivity interaction (KinomeScan (DiscoverX)) EUB0001079a DCLK2; settings: at 1 µM
T1 sequence (whole entry): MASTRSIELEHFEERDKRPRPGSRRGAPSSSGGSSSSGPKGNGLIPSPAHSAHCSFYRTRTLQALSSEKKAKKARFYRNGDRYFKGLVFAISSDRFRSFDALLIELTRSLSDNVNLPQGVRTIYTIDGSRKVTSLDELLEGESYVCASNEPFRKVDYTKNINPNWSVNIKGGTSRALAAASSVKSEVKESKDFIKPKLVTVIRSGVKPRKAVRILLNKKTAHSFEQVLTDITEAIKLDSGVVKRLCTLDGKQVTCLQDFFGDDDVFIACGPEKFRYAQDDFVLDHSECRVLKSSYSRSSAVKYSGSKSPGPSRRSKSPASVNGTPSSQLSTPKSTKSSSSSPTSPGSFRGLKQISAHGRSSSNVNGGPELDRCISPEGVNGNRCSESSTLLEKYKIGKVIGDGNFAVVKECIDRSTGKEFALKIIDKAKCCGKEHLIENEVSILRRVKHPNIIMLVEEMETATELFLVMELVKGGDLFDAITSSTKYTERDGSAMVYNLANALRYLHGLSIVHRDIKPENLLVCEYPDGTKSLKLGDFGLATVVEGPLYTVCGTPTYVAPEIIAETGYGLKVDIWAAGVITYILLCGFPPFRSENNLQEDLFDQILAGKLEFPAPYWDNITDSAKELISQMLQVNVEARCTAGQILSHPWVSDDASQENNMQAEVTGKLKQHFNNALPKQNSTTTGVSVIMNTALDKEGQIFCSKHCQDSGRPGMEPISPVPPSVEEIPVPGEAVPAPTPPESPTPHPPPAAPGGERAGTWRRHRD

[11] = biological target: T2, Serine/threonine-protein kinase LATS1 (Homo sapiens) (UniProt O95835); assay: Selectivity interaction (Kinase panel (KiNativ target engagement assay in Jurkat cells)) EUB0001635a LATS1; assay type: cell-based; settings: at 1 µM
T2 sequence (whole entry): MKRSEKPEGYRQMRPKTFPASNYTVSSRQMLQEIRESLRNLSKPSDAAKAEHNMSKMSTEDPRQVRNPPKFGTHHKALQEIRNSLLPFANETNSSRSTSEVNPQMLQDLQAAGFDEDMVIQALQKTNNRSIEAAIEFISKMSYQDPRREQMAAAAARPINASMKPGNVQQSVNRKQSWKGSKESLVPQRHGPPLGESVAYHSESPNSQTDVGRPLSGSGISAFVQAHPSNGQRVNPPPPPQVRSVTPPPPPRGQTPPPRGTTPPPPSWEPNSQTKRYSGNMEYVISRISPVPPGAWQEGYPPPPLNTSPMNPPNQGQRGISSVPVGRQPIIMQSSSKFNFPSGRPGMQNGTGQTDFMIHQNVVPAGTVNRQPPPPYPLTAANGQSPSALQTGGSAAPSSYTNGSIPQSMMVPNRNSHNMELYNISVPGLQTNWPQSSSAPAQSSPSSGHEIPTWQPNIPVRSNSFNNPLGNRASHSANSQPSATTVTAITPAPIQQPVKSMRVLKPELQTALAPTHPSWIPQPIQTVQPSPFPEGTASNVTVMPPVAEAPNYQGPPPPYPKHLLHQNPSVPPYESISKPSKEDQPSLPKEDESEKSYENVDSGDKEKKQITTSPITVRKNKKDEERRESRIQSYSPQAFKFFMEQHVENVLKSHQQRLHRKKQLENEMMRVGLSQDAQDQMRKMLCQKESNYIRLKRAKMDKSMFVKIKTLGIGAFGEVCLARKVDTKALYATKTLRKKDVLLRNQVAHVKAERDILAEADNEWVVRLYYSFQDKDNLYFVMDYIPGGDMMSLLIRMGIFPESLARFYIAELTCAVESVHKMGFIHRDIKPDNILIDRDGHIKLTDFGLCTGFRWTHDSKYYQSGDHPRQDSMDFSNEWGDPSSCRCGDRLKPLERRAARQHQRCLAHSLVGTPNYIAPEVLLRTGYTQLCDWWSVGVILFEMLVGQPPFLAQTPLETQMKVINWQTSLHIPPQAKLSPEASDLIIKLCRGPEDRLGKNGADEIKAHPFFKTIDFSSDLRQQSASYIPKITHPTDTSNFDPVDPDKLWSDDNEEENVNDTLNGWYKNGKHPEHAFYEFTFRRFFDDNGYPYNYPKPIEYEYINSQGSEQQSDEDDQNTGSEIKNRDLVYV

Sequence of Mitogen-activated protein kinase 8 (P45983 whole entry): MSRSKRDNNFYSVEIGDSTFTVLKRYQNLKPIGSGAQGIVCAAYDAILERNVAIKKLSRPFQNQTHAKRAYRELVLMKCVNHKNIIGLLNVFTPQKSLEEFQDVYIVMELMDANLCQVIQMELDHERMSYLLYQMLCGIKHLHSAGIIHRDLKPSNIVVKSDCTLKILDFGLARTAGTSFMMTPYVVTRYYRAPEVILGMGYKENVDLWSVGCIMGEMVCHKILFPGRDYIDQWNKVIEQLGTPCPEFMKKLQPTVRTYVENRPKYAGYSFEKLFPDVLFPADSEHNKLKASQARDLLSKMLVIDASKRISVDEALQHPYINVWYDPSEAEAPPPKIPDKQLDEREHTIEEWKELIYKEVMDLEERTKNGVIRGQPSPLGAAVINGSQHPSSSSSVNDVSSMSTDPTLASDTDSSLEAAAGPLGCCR

SMILES: O=C(NOC[C@H](O)CO)c1ccc(F)c(F)c1Nc1ccc(I)cc1F
- % of control [1]: 92%

SMILES: CN1Cc2nccc(-c3cn(C)nc3-c3ccc(F)cc3)c2C1=O
- % of inhibition [2]: 15%

SMILES: Cc1ccc(-c2ccc3c(ccc4sc5c(c43)NC[C@@H](C)NC5=O)n2)cn1
- % of inhibition [3]: 3%

SMILES: CC[C@@H]1[C@H](F)C(=O)N[C@@H]1COc1nccc2cc(C(N)=O)c(OC)cc12 [ZIMLOVISERTIB]
- % of inhibition [4]: 8.76%
- % of inhibition [5]: -3.82%

SMILES: Cc1cc(F)c(C(=O)Nc2cccc(-c3nncn3C(C)C)n2)cc1-n1cnc(C2CC2)c1
- % of control [6]: 100%

SMILES: CN(C)C/C=C/C(=O)Nc1ccc(C(=O)N2CCCC(Nc3ncc(Cl)c(-c4c[nH]c5ccccc45)n3)C2)cc1 (stereo unspecified)
- % of control [7]: 100%
- % of control [8]: 86%
- % of control [9]: 1%

SMILES: Nc1cnc(N2CCc3cc(S(=O)(=O)Nc4c(F)cc(Cl)cc4F)cc(N4CCCC4=O)c32)nc1 [TP-020n]
- % of control [10]: 100%

SMILES: C=CC(=O)Nc1ccc(C(=O)Nc2[nH]nc3c2CN(C(=O)N[C@H](CN(C)C)c2ccccc2)C3(C)C)cc1
- % of engagement [11]: 7.2%
